In patent publication EP3290412A1, “HIV-1 NUCLEOCAPSID INHIBITORS” (Università degli Studi di Siena, priority 2016, dated 2018):

Tests used:
[1] = target: NC(11-55) (Human immunodeficiency virus type 1, UniProt P12493); experiment: NC inhibition assay (NC-induced cTAR DNA destabilization, fluorescence); assay type: biochemical, HIV-1; details: for inhibition at 100 µM: single point screening, positive = >25% inhibition at 100µM
Outline: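 Doubly labelled cTAR (0.1 µM, Alexa488/Dabcyl) pre-complexed with 1 µM Zn-loaded NC(11-55) for 15 min, then compound added for a further 15 min; run at 20 °C in Tris-HCl pH 7.5, 30 mM NaCl, 0.2 mM MgCl2. Fluorescence read at ex 480/em 520 nm. IC50 taken from dose-response fit of % inhibition of NC-induced fluorescence increase.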

[2] = target: T1, full length (1-55) HIV-1 NCp7 (Human immunodeficiency virus type 1 group M subtype B, UniProt P12493); experiment: Electromobility Shift Assay (EMSA), competition for ssDNA binding; details: NCp7 300 nM, M13mp18 ssDNA; positive = >25% inhibition at 100µM
T1 construct: recombinant full length (1-55) HIV-1 NCp7 proteins; made in house
Outline: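 Recombinant NL4-3 NCp7 (300 nM in the pre-mix) was combined with compound in 20 mM Tris-HCl pH 7.4, 2 mM MgCl2, 100 mM NaCl, 1 mM DTT, then M13mp18 ssDNA was added for 25 min at 37 °C. Complexes were run on 1% agarose/0.5x TBE and stained with SybrGold. IC50 is the concentration at which bound ssDNA migrated 50% of the bound–unbound distance (triplicate).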

[3] = system: HIV-1 reference strain NL4-3; experiment: MonoCycle assay (TZM-bl cells); assay type: cell-based; details: Human immunodeficiency virus 1, NL43, TZM-bl, 48 h, read-out: Mono Cycle IC50 nM
Outline: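 TZM-bl cells (20,000/well) were infected with NL4-3 in the presence of five-fold serial inhibitor dilutions. After 48 h, cells were lysed and luciferase luminescence (RLU) was counted. IC50 was derived from the RLU data.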

C[C@@H](NC(=O)c1nc(-c2cc(CCN)ccn2)nc(O)c1O)C1CCCCC1 [Compound 88, (R)-2-(4-(2-aminoethyl)pyridin-2-yl)-N-(1-cyclohexylethyl)-5,6-dihydroxypyrimidine-4-carboxamide]
IC50 [1]: 7.5 µM
inhibition at 100 µM [1]: > 25%
EMSA screening results [2]: Positive (A compound showing >25% inhibition when tested at 100µM concentration is considered as "positive")
IC50 [3]: > 50000 nM

CCNS(=O)(=O)c1ccc(-c2nc(O)c(O)c(C(=O)N[C@H](C)C3CCCCC3)n2)nc1 [Compound 89, (R)-N-(1-cyclohexylethyl)-2-(5-(N-ethylsulfamoyl)pyridin-2-yl)-5,6-dihydroxypyrimidine-4-carboxamide]
IC50 [1]: 28 µM
inhibition at 100 µM [1]: > 25%
EMSA screening results [2]: Negative
IC50 [3]: > 50000 nM

C[C@@H](NC(=O)c1nc(-c2cc(CCNCc3cccn3C)ccn2)nc(O)c1O)C1CCCCC1 [Compound 91, (R)-N-(1-cyclohexylethyl)-5,6-dihydroxy-2-(4-(2-(((1-methyl-1H-pyrrol-2-yl)methyl)amino)ethyl)pyridin-2-yl)pyrimidine-4-carboxamide]
IC50 [1]: 12 µM
inhibition at 100 µM [1]: > 25%
EMSA screening results [2]: Positive (A compound showing >25% inhibition when tested at 100µM concentration is considered as "positive")
IC50 [3]: 2150 nM

C[C@@H](NC(=O)c1nc(-c2cc(CCN(C)C)ccn2)nc(O)c1O)C1CCCCC1 [Compound 92, (R)-N-(1-cyclohexylethyl)-2-(4-(2-(dimethylamino)ethyl)pyridin-2-yl)-5,6-dihydroxypyrimidine-4-carboxamide]
IC50 [1]: 10 µM
inhibition at 100 µM [1]: > 25%
EMSA screening results [2]: Negative
IC50 [3]: 6120 nM

C[C@@H](NC(=O)c1nc(-c2ccc(CN3CCCC3)cn2)nc(O)c1O)C1CCCCC1 [Compound 93, (R)-N-(1-cyclohexylethyl)-5,6-dihydroxy-2-(5-(pyrrolidin-1-ylmethyl)pyridin-2-yl)pyrimidine-4-carboxamide]
IC50 [1]: 50 µM
inhibition at 100 µM [1]: > 25%
EMSA screening results [2]: Negative
IC50 [3]: > 50000 nM
